Laboratory results published in the NIST ThermoML archive (doi:10.1021/je700406p).
± gives the expanded uncertainty stated by the source.

Settings: Liquid, Vibrating tube method

CC(C)(N)CO [2-amino-2-methylpropan-1-ol]
mass density [kg/m3]
Settings	313.06 K	322.98 K	332.91 K	342.84 K	352.79 K	362.65 K
500 kPa	–	922.7 ± 4.6	914 ± 4.5	905.4 ± 4.5	896.8 ± 4.4	–
504 kPa	–	–	–	–	–	888 ± 4.3
1000 kPa	931.4 ± 4.7	922.8 ± 4.6	914.4 ± 4.6	905.7 ± 4.5	897.2 ± 4.4	–
1002 kPa	–	–	–	–	–	888.4 ± 4.3
2000 kPa	931.9 ± 4.7	923.4 ± 4.6	915 ± 4.6	906.4 ± 4.5	897.9 ± 4.4	889 ± 4.3
3000 kPa	932.4 ± 4.7	924 ± 4.6	915.6 ± 4.6	907 ± 4.5	898.5 ± 4.4	889.7 ± 4.3
4000 kPa	932.9 ± 4.7	924.5 ± 4.7	916.1 ± 4.6	907.6 ± 4.5	–	890.5 ± 4.3
4001 kPa	–	–	–	–	899.2 ± 4.4	–
5000 kPa	933.5 ± 4.7	925.1 ± 4.7	916.7 ± 4.6	908.3 ± 4.5	899.9 ± 4.4	891.2 ± 4.4
6000 kPa	933.9 ± 4.8	925.7 ± 4.7	917.3 ± 4.6	908.9 ± 4.5	900.5 ± 4.4	891.8 ± 4.4
7000 kPa	934.5 ± 4.8	926.2 ± 4.7	918 ± 4.6	909.5 ± 4.5	–	892.5 ± 4.4
7001 kPa	–	–	–	–	901.2 ± 4.5	–
8000 kPa	935 ± 4.8	926.8 ± 4.7	918.5 ± 4.6	–	901.8 ± 4.5	–
8001 kPa	–	–	–	910.1 ± 4.5	–	893.2 ± 4.4
9007 kPa	935.5 ± 4.8	927.4 ± 4.7	–	–	–	–
9009 kPa	–	–	919.1 ± 4.6	910.7 ± 4.5	902.4 ± 4.5	–
9010 kPa	–	–	–	–	–	893.9 ± 4.4
10002 kPa	–	927.8 ± 4.7	–	–	–	–
10003 kPa	936 ± 4.8	–	919.7 ± 4.6	911.3 ± 4.6	903.1 ± 4.5	894.6 ± 4.4
11000 kPa	936.6 ± 4.8	928.4 ± 4.7	–	–	–	–
11001 kPa	–	–	–	911.9 ± 4.6	903.7 ± 4.5	895.2 ± 4.4
11002 kPa	–	–	920.2 ± 4.6	–	–	–
12000 kPa	937 ± 4.8	928.9 ± 4.7	–	912.5 ± 4.6	904.3 ± 4.5	895.8 ± 4.4
12001 kPa	–	–	920.8 ± 4.6	–	–	–
13000 kPa	937.6 ± 4.8	929.5 ± 4.7	921.3 ± 4.7	913.1 ± 4.6	–	–
13001 kPa	–	–	–	–	904.9 ± 4.5	896.5 ± 4.4
14000 kPa	938.1 ± 4.8	930.1 ± 4.7	921.9 ± 4.7	913.6 ± 4.6	905.5 ± 4.5	897.1 ± 4.4
15002 kPa	938.6 ± 4.8	–	922.4 ± 4.7	–	906.1 ± 4.5	–
15003 kPa	–	930.6 ± 4.7	–	914.3 ± 4.6	–	897.8 ± 4.5
16000 kPa	939.1 ± 4.8	–	–	–	–	–
16001 kPa	–	–	923 ± 4.7	914.8 ± 4.6	906.7 ± 4.5	898.4 ± 4.5
16006 kPa	–	931.1 ± 4.8	–	–	–	–
17000 kPa	–	–	–	–	–	899.1 ± 4.5
17001 kPa	939.7 ± 4.8	931.6 ± 4.8	923.5 ± 4.7	915.3 ± 4.6	907.4 ± 4.5	–
18002 kPa	940.2 ± 4.8	932.1 ± 4.8	924.1 ± 4.7	915.9 ± 4.6	907.9 ± 4.6	899.7 ± 4.5
18997 kPa	–	–	–	–	908.5 ± 4.6	–
19000 kPa	940.6 ± 4.8	932.6 ± 4.8	924.6 ± 4.7	916.5 ± 4.6	–	900.3 ± 4.5
20029 kPa	941.1 ± 4.9	–	–	–	–	–
20030 kPa	–	933.2 ± 4.8	925.2 ± 4.7	917.1 ± 4.6	909.1 ± 4.6	901 ± 4.5
21001 kPa	–	–	–	–	909.7 ± 4.6	–
21002 kPa	–	–	925.6 ± 4.7	–	–	–
21004 kPa	941.7 ± 4.9	–	–	–	–	901.6 ± 4.5
21005 kPa	–	933.7 ± 4.8	–	917.6 ± 4.6	–	–
22004 kPa	942.1 ± 4.9	934.1 ± 4.8	926.2 ± 4.7	918.1 ± 4.7	910.3 ± 4.6	902.2 ± 4.5
23000 kPa	–	–	926.7 ± 4.7	918.7 ± 4.7	910.9 ± 4.6	902.8 ± 4.5
24003 kPa	–	–	–	–	–	903.3 ± 4.5
24004 kPa	943.1 ± 4.9	935.2 ± 4.8	927.3 ± 4.7	919.2 ± 4.7	911.4 ± 4.6	–
